Laboratory results taken from EP4548971A1, “1,4-BENZOTHIAZEPINES AND RELATED COMPOUNDS WITH CYCLOPROPANOL GROUPS AS MULTI-TARGETED DRUGS” (Georg-August-Universität Göttingen Stiftung Öffentlichen …, priority 2023, dated 2025).
Entries after “also recorded” stand apart in the source; their conditions may differ.

Target: T1, SERCA2a (Mus musculus, UniProt O55143)
T1 construct: host or cells: HL-1 cardiac cells
Test: Caffeine-induced Ca2+ release assay on HL-1 cells
Type: cell-based
Set-up: key to SERCA2a HL-1 effect class: +++: a strong effect, comparable to or greater than that of a known compounds at a given concentration (25 µM in RyR2 R-CEPIA1er assay, 10 µM in caffeine assay and on microsomal membrane vesicles); ++: moderate effect; +: observable effect; -: no effect
Details: for SERCA2a HL-1 effect class: 10 µM in caffeine assay; for effect in caffeine-induced Ca^2+ release assay, in words: HL-1 cells incubated 2 h with compound; for effect in caffeine-induced Ca^2+ release assay, in words / EC50: 10 mM caffeine; for EC50: caffeine-induced Ca2+ release, range after the semicolon is not explained
Method: HL-1 cardiac cells (SCC065, Merck KGaA, Darmstadt, Germany) were cultivated in Claycomb's Medium (51800C, Merck KGaA, Darmstadt, Germany), supplemented with Glutamax, 10% fetal bovine serum, 0.9% Penicillin/Streptomycin and 0.1 mM Noradrenaline (Merck KGaA, Darmstadt, Germany) on fibronectin/gelatin (Merck KGaA, Darmstadt, Germany) coated culture bottles or plates two days before plating.
HL-1 cardiac cells (50000 per well) were cultivated for 24 h in black-walled, clear-bottom 96-well micro-plates (Corning, Amsterdam, The Netherlands) covered with fibronectin/gelatin (Merck KGaA, Darmstadt, Germany) in a humidified incubator at 37 °C and 5% CO2.
Changes in Ca^2+ concentration were measured on a multiwell plate reader TECAN Spark 20M using FLIPR 6 Calcium Assay Kit from Molecular Devices (Molecular Devices LLC, München, Germany) at 37 °C. The 1000 × stock solutions of the test compounds were prepared in DMSO. 100 µl solution of test compound in Tyrode's solution containing FLIPR Calcium 6 dye was incubated for 2 hours at 37°C and 5% COz in a humidified incubator. The time courses were recorded in each well. Fluorescence was evoked at 485 nm excitation wavelength and read out in a bottom-read mode at 525 nm. Data were recorded every 2 s, exposure - 20 flashes, excitation bandwidth - 10 nm, emission bandwidth - 15 nm. To initiate Ca^2+ influx, 25 µl of 50 mM caffeine solution in Tyrode's solution containing 2 mM CaCl2 was injected in each well (speed 100 µl/s) at 10 s time point, resulting in 10 mM final concentration in the well. The differences between the caffeine induced peak minus basal fluorescence, ΔFCaff, were taken for the analysis. The Tyrode's solution + 0.1 v/v% DMSO was used as a control. The dose response curves were calculated using the software package GraphPad Prism version 8.3.1. All data are presented as mean ± S.D. from 8 independent experiments. Y=Bottom + (Top-Bottom)/(1+10^((LogEC50-X)*HillSlope)) was used where HillSlope describes the steepness of the curve, Top and Bottom are plateaus in the units of the Y axis.
The SERCA2a activity of the compounds was confirmed in two orthogonal biochemical assays: caffeine-induced Ca^2+ release assay and nicotinamide adenine dinucleotide (NADH) assay on microsomal membrane vesicles from mouse heart ventricles (mouse SER) and HEK-293T cells (HEK-293 ER). The effect of caffeine-induced Ca^2+ release in HL-1 cells, immortalized mouse cardiomyocytes, treated with the cytosolic Ca^2+ indicator FLIPR Calcium 6 (Molecular Devices) was investigated.
When caffeine binds to the RyR channel, it interacts with specific amino acids of the protein, and this interaction causes conformational changes in the protein's structure [A. des Georges, O. B. Clarke, R. Zalk, Q. Yuan, K. J. Condon, R. A. Grassucci, W. A. Hendrickson, A. R. Marks, J. Frank, Structural Basis for Gating and Activation of RyR1. Cell 2016, 167, 145 - 157.e17]. This opens the RyR2 channel pore, enabling the mass release of calcium ions from the SER Ca^2+ store.

T1 sequence (O55143 1-998 isoform O55143-2): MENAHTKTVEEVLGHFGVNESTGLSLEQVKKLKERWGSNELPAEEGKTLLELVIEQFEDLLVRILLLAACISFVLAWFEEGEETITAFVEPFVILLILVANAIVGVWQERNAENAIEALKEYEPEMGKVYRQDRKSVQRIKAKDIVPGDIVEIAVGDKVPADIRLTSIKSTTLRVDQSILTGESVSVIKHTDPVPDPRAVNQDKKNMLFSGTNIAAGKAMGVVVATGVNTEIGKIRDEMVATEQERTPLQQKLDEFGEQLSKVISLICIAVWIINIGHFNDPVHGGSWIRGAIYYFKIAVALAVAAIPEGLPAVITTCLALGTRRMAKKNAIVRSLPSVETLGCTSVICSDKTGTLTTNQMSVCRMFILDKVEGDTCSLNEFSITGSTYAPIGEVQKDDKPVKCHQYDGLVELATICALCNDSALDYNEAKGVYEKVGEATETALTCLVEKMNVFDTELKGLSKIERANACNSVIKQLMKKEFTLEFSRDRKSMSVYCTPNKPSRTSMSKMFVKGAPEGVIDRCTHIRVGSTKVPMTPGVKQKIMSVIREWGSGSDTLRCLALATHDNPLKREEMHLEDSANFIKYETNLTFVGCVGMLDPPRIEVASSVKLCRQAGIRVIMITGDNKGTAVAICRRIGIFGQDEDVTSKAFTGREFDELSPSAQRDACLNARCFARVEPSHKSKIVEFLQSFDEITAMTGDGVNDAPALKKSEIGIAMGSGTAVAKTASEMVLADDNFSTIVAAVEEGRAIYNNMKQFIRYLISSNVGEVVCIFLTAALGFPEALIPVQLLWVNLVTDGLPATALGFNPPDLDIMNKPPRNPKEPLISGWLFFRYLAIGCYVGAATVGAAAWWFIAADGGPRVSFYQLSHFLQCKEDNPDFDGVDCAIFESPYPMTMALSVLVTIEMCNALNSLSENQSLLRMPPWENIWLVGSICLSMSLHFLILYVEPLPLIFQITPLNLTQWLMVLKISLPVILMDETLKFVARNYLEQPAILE

SMILES | SERCA2a HL-1 effect class | effect in caffeine-induced Ca^2+ release assay, in words | EC50 [µM]
COc1ccc2c(c1)CN(Cc1ccc(C(=O)O)cc1)CCS2 [ARM210, reference compound] | + | clear concentration-dependent effect | 
COc1ccc2c(c1)CN(CCCCNCCCCC1(O)CC1)CCS2 [Compound 13a, 1-(4-((4-(7-Methoxy-2,3-dihydrobenzo[1,4-f]-thiazepin-4(5H)-yl)butyl)amino)butyl)cyclopropan-1-ol] | + | most potent | 2.2
COc1ccc(OCCCNCCCCC2(O)CC2)cc1 [Compound 13b, 1-(4-((3-(4-methoxyphenoxy)propyl)amino)butyl)cyclopropan-1-ol] | ++ |  | 8.6
COc1ccc(SCCCNCCCCC2(O)CC2)cc1 [Compound 13c, 1-(4-((3-((4-Methoxyphenyl)thio)propyl)amino)butyl)cyclopropan-1-ol] | ++ |  | 7.6
COc1ccc2c(c1)CN(CCCCC1(O)CC1)CCS2 [Compound 13d, 1-(4-(7-methoxy-2,3-dihydrobenzo[1,4-f]thiazepin-4(5H)-yl)butyl)cyclopropan-1-ol] | + | least efficacious; also recorded: no saturation effect at concentrations up to 50 µM; also recorded: slight | 
COc1ccc2c(c1)CN(CCCCN(CCCCC1(O)CC1)CCCCC1(O)CC1)CCS2 [Compound 14a, 1,1'-(((4-(7-Methoxy-2,3-dihydrobenzo[1,4-f]thiazepin-4(5H)-yl)butyl)azanediyl)bis(butane-4,1-diyl))bis(cyclopropan-1-ol)] | ++ |  | 9.2
COc1ccc(SCCCN(CCCCC2(O)CC2)CCCCC2(O)CC2)cc1 [Compound 14c, 1,1'-(((3-((4-Methoxyphenyl)thio)propyl)azanediyl)bis(butane-4,1-diyl))bis(cyclopropan-1-ol)] | +++ | most efficacious | 10.9
COc1ccc2c(c1)CN(C(=O)C(=O)O)CCS2 [Compound S36, reference compound] | - | no concentration dependent effect | 
